In patent publication US8871774B2, “Inhibitors of influenza viruses replication” (priority 2010, dated 2014):
Where two headings read alike, the source gives them in different places.

Tests used:
[1] = system: Influenza virus, strain A/PR/8/34; assay: microbe, parasite or virus in culture; assay type: cell-based; conditions: unidentified influenza virus, PR/8, read-out: bDNA EC50 (uM)
[2] = system: influenza A virus (A/PR/8/34); assay: cytopathic effect (CPE) assay, MDCK cell protection by ATP detection; assay type: cell-based; conditions: Influenza A virus, mean IC50, MDCK cells, A/PR/8/34, 72 hours, 50% cell protection
[3] = Table 1, read-out: Flu, MDCK IC50
[4] = Table 2, read-out: Flu MDCK IC50

| SMILES | EC50 [1] | IC50 [2, 3] | IC50 [2, 4] |
| --- | --- | --- | --- |
| COC(=O)[C@H]1C2CCC(CC2)[C@@H]1Nc1nc(-c2n[nH]c3ncc(Cl)cc23)ncc1F (racemic) [Compound I-2, (+/−)-trans-(2,3)-methyl 3-((2-(5-chloro-1H-pyrazolo[3,4-b]pyridin-3-yl)-5-fluoropyrimidin-4-yl)amino)bicyclo[2.2.2]octane-2-carboxylate] | < 3.3 µM | < 3.3 µM |  |
| O=C(O)[C@H]1C2CCC(CC2)[C@@H]1Nc1nc(-c2n[nH]c3ncc(Cl)cc23)ncc1F (racemic) [Compound I-6, (+/−) trans-(2S,3S)-3-((2-(5-chloro-1H-pyrazolo[3,4-b]pyridin-3-yl)-5-fluoropyrimidin-4-yl)amino)bicyclo[2.2.2]octane-2-carboxylic acid] | < 3.3 µM | < 3.3 µM |  |
| O=C(O)[C@H]1C2CCC(CC2)[C@@H]1Nc1nc(-c2n[nH]c3ncccc23)ncc1F (racemic) [Compound I-11, (+/−)-trans-3-((5-fluoro-2-(1H-pyrazolo[3,4-b]pyridin-3-yl)pyrimidin-4-yl)amino)bicyclo-[2.2.2]octane-2-carboxylic acid] | < 3.3 µM | < 3.3 µM |  |
| C[C@]1(C(=O)O)CCCC[C@@H]1Nc1nc(-c2n[nH]c3ncc(Cl)cc23)ncc1F (racemic) [Compound I-13, (+/−)-2-((2-(5-chloro-1H-pyrazolo[3,4-b]pyridin-3-yl)-5-fluoropyrimidin-4-yl)amino)-1-methylcyclohexanecarboxylic acid] | < 3.3 µM | < 3.3 µM |  |
| COC(=O)[C@H]1C2CCC(CC2)[C@@H]1Nc1nc(-c2n[nH]c3ncc(F)cc23)ncc1F (racemic) [Compound I-28, (+/−) trans-methyl 3-(5-fluoro-2-(5-fluoro-1H-pyrazolo[3,4-b]pyridin-3-yl)pyrimidin-4-ylamino)bicyclo[2.2.2]octane-2-carboxylate] | < 3.3 µM | < 3.3 µM |  |
| COC(=O)[C@H]1C2CCC(CC2)[C@@H]1Nc1nc(-c2n[nH]c3ncc(F)cc23)ncc1Cl (racemic) [Compound I-32, (+/−)-trans-(2,3)-methyl 3-((5-chloro-2-(5-fluoro-1H-pyrazolo[3,4-b]pyridin-3-yl)pyrimidin-4-yl)amino)bicyclo[2.2.2]octane-2-carboxylate] | < 3.3 µM | < 3.3 µM |  |
| O=C(O)[C@H]1C2CCC(CC2)[C@@H]1Nc1nc(-c2n[nH]c3ncc(F)cc23)ncc1Cl (racemic) [Compound I-33, (+/−)-trans-(2,3)-3-((5-chloro-2-(5-fluoro-1H-pyrazolo[3,4-b]pyridin-3-yl)pyrimidin-4-yl)amino)bicyclo[2.2.2]octane-2-carboxylic acid] | < 3.3 µM | < 3.3 µM |  |
| COC(=O)[C@H]1C2CCCC(CC2)[C@@H]1Nc1nc(-c2n[nH]c3ncc(F)cc23)ncc1F (mixture of isomers) [Compound I-36, (+/−)-methyl 7-(5-fluoro-2-(5-fluoro-1H-pyrazolo[3,4-b]pyridin-3-yl)pyrimidin-4-ylamino)bicyclo[3.2.2]nonane-6-carboxylate] | < 3.3 µM | < 3.3 µM |  |
| O=C(O)[C@H]1C2CCCC(CC2)[C@@H]1Nc1nc(-c2n[nH]c3ncc(F)cc23)ncc1F (mixture of isomers) [Compound I-37, (+/−)-7-(5-fluoro-2-(5-fluoro-1H-pyrazolo[3,4-b]pyridin-3-yl)pyrimidin-4-ylamino)bicyclo[3.2.2]nonane-6-carboxylic acid] | < 3.3 µM | < 3.3 µM |  |
| COC(=O)[C@H]1C2CCC(CC2)C1Nc1ccnc(-c2n[nH]c3ncc(F)cc23)n1 (mixture of isomers) [Compound I-42, (+/−)-trans-methyl-3-((2-(5-fluoro-1H-pyrazolo[3,4-b]pyridin-3-yl)pyrimidin-4-yl)amino)bicyclo[2.2.2]octane-2-carboxylate] | < 3.3 µM |  | < 3.3 µM |
| O=C(O)[C@H]1C2CCC(CC2)C1Nc1ccnc(-c2n[nH]c3ncc(F)cc23)n1 (mixture of isomers) [Compound I-43, (+/−)-trans-3-((2-(5-fluoro-1H-pyrazolo[3,4-b]pyridin-3-yl)pyrimidin-4-yl)amino)bicyclo[2.2.2]octane-2-carboxylic acid] | < 3.3 µM |  | < 3.3 µM |
| O=C(N[C@@H]1CCC[C@H](Nc2nc(-c3n[nH]c4ncc(Cl)cc34)ncc2F)C1)N1CCOCC1 [Compound I-1, N-((1R,3S)-3-((2-(5-chloro-1H-pyrazolo[3,4-b]pyridin-3-yl)-5-fluoropyrimidin-4-yl)amino)cyclohexyl)morpholine-4-carboxamide] | < 3.3 µM | < 3.3 µM |  |
| O=C(N[C@@H]1CCC[C@H](Nc2nc(-c3n[nH]c4ncc(Cl)cc34)ncc2F)C1)N1CCCC1 [Compound I-3, N-((1R,3S)-3-((2-(5-chloro-1H-pyrazolo[3,4-b]pyridin-3-yl)-5-fluoropyrimidin-4-yl)amino)cyclohexyl)pyrrolidine-1-carboxamide] | < 3.3 µM | < 3.3 µM |  |
| O=C(N[C@@H]1CCC[C@H](Nc2nc(-c3n[nH]c4ncc(Cl)cc34)ncc2F)C1)N1CCC[C@H]1CO [Compound I-4, (S)—N-((1R,3S)-3-((2-(5-chloro-1H-pyrazolo[3,4-b]pyridin-3-yl)-5-fluoropyrimidin-4-yl)amino)cyclohexyl)-2-(hydroxymethyl)pyrrolidine-1-carboxamide] | < 3.3 µM | < 3.3 µM |  |
| COC1CCN(C(=O)N[C@@H]2CCC[C@H](Nc3nc(-c4n[nH]c5ncc(Cl)cc45)ncc3F)C2)C1 (stereo partly drawn) [Compound I-5, N-((1R,3S)-3-((2-(5-chloro-1H-pyrazolo[3,4-b]pyridin-3-yl)-5-fluoropyrimidin-4-yl)amino)cyclohexyl)-3-methoxypyrrolidine-1-carboxamide] | < 3.3 µM | < 3.3 µM |  |
| O=C(N[C@@H]1CCC[C@H](Nc2nc(-c3n[nH]c4ncccc34)ncc2F)C1)N1CCOCC1 [Compound I-7] | < 3.3 µM | < 3.3 µM |  |
| O=C(O)[C@H]1C2CCC(CC2)[C@@H]1Nc1nc(-c2n[nH]c3ncc(Cl)cc23)ncc1F [Compound I-9, (2S,3 S)-3-((2-(5-chloro-1H-pyrazolo[3,4-b]pyridin-3-yl)-5-fluoropyrimidin-4-yl)-amino)bicyclo[2.2.2]octane-2-carboxylic acid] | < 3.3 µM | < 3.3 µM |  |
| O=C(O)[C@@H]1C2CCC(CC2)[C@H]1Nc1nc(-c2n[nH]c3ncc(Cl)cc23)ncc1F [Compound I-10, (2R,3R)-3-((2-(5-chloro-1H-pyrazolo[3,4-b]pyridin-3-yl)-5-fluoropyrimidin-4-yl)-amino)bicyclo[2.2.2]octane-2-carboxylic acid] | < 3.3 µM | < 3.3 µM |  |
| O=C(N[C@@H]1CCC[C@H](Nc2nc(-c3n[nH]c4ncccc34)ncc2F)C1)N1CCCC1 [Compound I-12, N-((1R,3S)-3-((5-fluoro-2-(1H-pyrazolo[3,4-b]pyridin-3-yl)pyrimidin-4-yl)amino)cyclohexyl)pyrrolidine-1-carboxamide] | < 3.3 µM | < 3.3 µM |  |
| C[C@H]1CCCN1C(=O)N[C@@H]1CCC[C@H](Nc2nc(-c3n[nH]c4ncccc34)ncc2F)C1 [Compound I-15, (S)—N-((1R,3S)-3-((5-fluoro-2-(1H-pyrazolo[3,4-b]pyridin-3-yl)pyrimidin-4-yl)-amino)cyclohexyl)-2-methylpyrrolidine-1-carboxamide] | < 3.3 µM | < 3.3 µM |  |
| O=C(N[C@@H]1CCC[C@H](Nc2nc(-c3n[nH]c4ncccc34)ncc2F)C1)N1CCC(F)(F)C1 [Compound I-16, 3,3-difluoro-N-((1R,3S)-3-((5-fluoro-2-(1H-pyrazolo[3,4-b]pyridin-3-yl)pyrimidin-4-yl)amino)cyclohexyl)pyrrolidine-1-carboxamide] | < 3.3 µM | < 3.3 µM |  |
| O=C(N[C@@H]1CCC[C@H](Nc2nc(-c3n[nH]c4ncccc34)ncc2F)C1)N1CC[C@H](F)C1 [Compound I-17, (S)-3-fluoro-N-((1R,3S)-3-((5-fluoro-2-(1H-pyrazolo[3,4-b]pyridin-3-yl)pyrimidin-4-yl)amino)cyclohexyl)pyrrolidine-1-carboxamide] | < 3.3 µM | < 3.3 µM |  |
| C[C@@H]1CCCN1C(=O)N[C@@H]1CCC[C@H](Nc2nc(-c3n[nH]c4ncccc34)ncc2F)C1 [Compound I-18, (R)—N-((1R,3S)-3-((5-fluoro-2-(1H-pyrazolo[3,4-b]pyridin-3-yl)pyrimidin-4-yl)amino)cyclohexyl)-2-methylpyrrolidine-1-carboxamide] | < 3.3 µM | < 3.3 µM |  |
| O=C(N[C@@H]1CCC[C@H](Nc2nc(-c3n[nH]c4ncccc34)ncc2F)C1)N1CC[C@@H](F)C1 [Compound I-19, (R)-3-fluoro-N-((1R,3S)-3-((5-fluoro-2-(1H-pyrazolo[3,4-b]pyridin-3-yl)pyrimidin-4-yl)amino)cyclohexyl)pyrrolidine-1-carboxamide] | < 3.3 µM | < 3.3 µM |  |
| O=C(N[C@@H]1CCC[C@H](Nc2nc(-c3n[nH]c4ncccc34)ncc2F)C1)N1CCC(F)CC1 [Compound I-20] | < 3.3 µM | < 3.3 µM |  |
| O=C(N[C@@H]1CCC[C@H](Nc2nc(-c3n[nH]c4ncc(F)cc34)ncc2F)C1)N1CCOCC1 [Compound I-21, N-((1R,3S)-3-((5-fluoro-2-(5-fluoro-1H-pyrazolo[3,4-b]pyridin-3-yl)pyrimidin-4-yl)amino)cyclohexyl)morpholine-4-carboxamide] | < 3.3 µM | < 3.3 µM |  |
| O=C(N[C@@H]1CCC[C@H](Nc2nc(-c3n[nH]c4ncccc34)ncc2F)C1)N1CCCCC1 [Compound I-22, N-((1R,3S)-3-((5-fluoro-2-(1H-pyrazolo[3,4-b]pyridin-3-yl)pyrimidin-4-yl)amino)-cyclohexyl)piperidine-1-carboxamide] | < 3.3 µM | < 3.3 µM |  |
| O=C(N[C@@H]1CCC[C@H](Nc2nc(-c3n[nH]c4ncc(F)cc34)ncc2F)C1)N1CC[C@@H](F)C1 [Compound I-23, (R)-3-fluoro-N-((1R,3S)-3-((5-fluoro-2-(5-fluoro-1H-pyrazolo[3,4-b]pyridin-3-yl)pyrimidin-4-yl)amino)cyclohexyl)pyrrolidine-1-carboxamide] | < 3.3 µM | < 3.3 µM |  |
